“Also recorded” adds a separate entry of the source. Structures can show the parent of a compound that is named as a salt.
Columns and labels:
[1] = tested on: LPS-induced pulmonary neutrophilia in rats; experiment: In Vivo Assay 1: LPS induced pulmonary neutrophilia in rats, intratracheally administered PDE4 inhibitors; set-up: species or system rat; details: for percentage mean inhibition of LPS-induced pulmonary neutrophilia / arithmetic mean percentage inhibition of LPS-induced pulmonary neutrophilia: rat, about 2 hours prior to LPS; for percentage mean inhibition of LPS-induced pulmonary neutrophilia: i.t. aqueous solution; for arithmetic mean percentage inhibition of LPS-induced pulmonary neutrophilia: i.t. dry powder blended in lactose; for duration of action: preliminary tests
Excerpt: This assay is an animal model of acute inflammation in the lung—specifically neutrophilia induced by lipopolysaccharide (LPS)—and allows the study of putative inhibition of such neutrophilia (anti-inflammatory effect) by an intratracheally (i.t.) administered PDE4 inhibitor (“drug”). The PDE4 inhibitors are suitably in dry powder, aqueous solution or aqueous suspension form. I.t. administration is one model of inhaled administration, allowing topical delivery to the lung.
Animals: Male CD (Sprague Dawley Derived) rats supplied by Charles River, United Kingdom are housed in groups of 5 rats per cage, acclimatised after delivery for at least 7 days with bedding/nesting material regularly changed, fed on SDS diet R1 pelleted food given ad lib, and supplied with daily-changed pasteurised animal grade drinking water.
Device for dry powder administration: For these studies, a Penn Century DP-4 dry powder intratracheal (i.t.) delivery device (insufflator) is used for administration of a dry powder blend of vehicle (inhalation grade lactose) and the PDE4 inhibitor compound or salt of the invention (“drug”). Each device is numbered and the sample loading chamber is unscrewed from the main device and weighed. The i.t. delivery needle is also weighed. The drug+lactose blend or inhalation grade lactose (vehicle control) is then added to the sample chamber and this is then re-weighed. The sample chamber is fitted back on to the main device to prevent any drug being lost. This procedure is repeated for all of the Penn century devices to be used in the study (one separate device for each animal). After dosing to the animals, the sample chambers and needles are re-weighed in order to determine the amount of sample that was expelled from the device.
Device for aqueous solution administration: A blunt dosing needle, whose forward end is slightly angled to the needle axis, is used, with a flexible plastic portex canula inserted into the needle. The portex cannula is inserted into the lumen of the blunt stainless steel dosing needle and this is carefully inserted into the back of the animal's throat and into the trachea via the larynx. A known volume (200 microliters) of the vehicle (0.2% Tween 80™ in saline) or of the solution (or suspension) drug composition is administered into the trachea using a plastic syringe that is attached to the portex cannula and dosing needle. A new internal cannula is used for each different drug group. After dosing, the needle is removed from the trachea and the animals are removed from the table and continually observed until they recover from the effects of anaesthesia. The animals are then returned to the holding cages and given free access to food and water, and are observed and any unusual behavioural changes noted. (Aqueous suspensions can be handled generally similarly.)
Drugs and Materials: Lipopolysaccharide (LPS) (Serotype:0127:B8, e.g. from Sigma, UK; e.g. L3129 prepared by phenol extraction) is dissolved in phosphate-buffered saline (PBS).
For dry powder, aqueous solution or aqueous suspension administration, PDE4 inhibitors are preferably used in size-reduced (e.g. micronised) form, for example according to the Micronisation Example(s) disclosed herein.
For dry powder administration of the drug, the PDE4 inhibitor compound or salt of the invention (drug) is administered as a dry powder blended with inhalation-grade (respiratory-grade) lactose, i.e. as a dry powder composition. The target quantity of dry powder composition administered i.t. to each animal is 2 mg. This remains constant throughout the studies. To achieve different doses, blends of the drug dry powder and lactose, containing different concentrations of the PDE4 inhibitor compound or salt of the invention (drug), are prepared. […]

[2] = tested on: LPS-induced nasal neutrophilia in rats; experiment: In vivo assay 2: LPS induced nasal neutrophilia in rats, intranasally administered PDE4 inhibitors; details: rat, i.n. aqueous solution, about 30 minutes prior to LPS
Excerpt: This assay is an animal model of acute inflammation in the nose—specifically neutrophilia induced by lipopolysaccharide (LPS)—and allows the study of putative inhibition of such neutrophilia (anti-inflammatory effect) by an intranasally (i.n.) administered PDE4 inhibitor (“drug”). The PDE4 inhibitor is preferably in the form of an aqueous suspension or aqueous solution. Bolus, i.n. administration allows topical delivery to the nose.
Animals: Male CD rats (Sprague Dawley derived), weighing between 300-350 g are supplied by Charles River, UK and transported to the test site. On arrival at the test site, the animals are housed in groups of 4 or 5 per cage and complete a minimum acclimatisation period of 7 days. The animals are housed in solid bottomed cages using grade 8 sawdust. The bedding and nesting materials are changed 3 times per week. Diet comprises SDS diet R1 pelleted food given ad lib. Pasteurised animal grade drinking water is supplied and changed daily.
Lipopolysaccharide (Serotype: 0127:B8, e.g. available from Sigma, UK; e.g. L3129 prepared by phenol extraction) is used for all studies and is dissolved in phosphate-buffered saline (PBS).
Tween 80™ (e.g. available from Sigma e.g. 023K 01575). A mixture of 0.2% Tween 80™ in phosphate buffered saline (PBS) is prepared as vehicle for solution compositions. The Sigma catalogue 2004-2005 and The Handbook of Pharmaceutical Excipients (HPE) 4th edition 2003 pp. 479-483 define Tween 80™ as a brand of polysorbate 80 (according to HPE, polysorbate 80 is also named polyoxyethylene 20 sorbitan monooleate, i.e. having been copolymerised with about 20 moles of ethylene oxide for each mole of sorbitol and/or sorbitol anhydrides used).
The PDE4 inhibitor compound or salt of the invention (“drug”) is preferably used in size-reduced (e.g. micronised) form, for example according to the Micronisation Example(s) disclosed herein.
A solution of compound (0.7 mg/ml) is generally prepared by adding 0.2% Tween 80™ in phosphate buffered saline (PBS) to a pre-weighed micronised sample of the drug. The solution composition is sonicated, e.g. for approximately 2 min, and is observed to be a solution (if it is a solution) by visual assessment. A fixed volume of 50 microliters (25 microliters into each nostril) of either the drug-containing solution composition or a saline/Tween 80™ vehicle is administered to all animals. Each animal weighs, on average, 350 g. To achieve a dose of 100 μg/kg (100 ug/kg), each animal receives a total of 35 μg (35 ug) of the drug. The dose volume is 50 microliters (25 microliters to each nostril), and therefore a concentration of 35 μg (ug) per 50 microliters (0.7 mg/ml) is prepared. To achieve lower dose concentrations, serial dilutions are prepared in saline/Tween 80™. […]

[3] = cited from earlier work
[4] = cited from earlier work; remark: listed apart in the source
[5] = orally 500 ug once daily for 9 days; daily intranasal allergen provocation (pollen extracts); cited from earlier work

CCc1nc2c(cnn2CC)c(NC2CCOCC2)c1CNC(=O)c1ccc(NC(=O)CCCCCCCN(C)CCO)cc1 [Example 1A1, N-{[1,6-Diethyl-4-(tetrahydro-2H-pyran-4-ylamino)-1H-pyrazolo[3,4-b]pyridin-5-yl]methyl}-4-({8-[(2-hydroxyethyl)(methyl)amino]octanoyl}amino)benzamide dihydrochloride]
percentage mean inhibition of LPS-induced pulmonary neutrophilia ([1]; about 10 micrograms/kg, dihydrochloride): about 33%
percentage mean inhibition of LPS-induced pulmonary neutrophilia ([1]; about 30 micrograms/kg, dihydrochloride): about 56%
percentage mean inhibition of LPS-induced pulmonary neutrophilia ([1]; about 100 micrograms/kg, dihydrochloride): about 76%
percentage mean inhibition of LPS-induced pulmonary neutrophilia ([1]; about 300 micrograms/kg): about 74%

CCc1nc2c(cnn2CC)c(NC2CCOCC2)c1CNC(=O)c1ccc(NC(=O)CCCCCCCN(C)CCO)cc1 [Example 1A2, N-{[1,6-diethyl-4-(tetrahydro-2H-pyran-4-ylamino)-1H-pyrazolo[3,4-b]pyridin-5-yl]methyl}-4-({8-[(2-hydroxyethyl)(methyl)amino]octanoyl}amino)benzamide monohydrochloride]
arithmetic mean percentage inhibition of LPS-induced pulmonary neutrophilia ([1]; about 10 micrograms/kg): about 29%
arithmetic mean percentage inhibition of LPS-induced pulmonary neutrophilia ([1]; about 30 micrograms/kg): about 44%
arithmetic mean percentage inhibition of LPS-induced pulmonary neutrophilia ([1]; about 100 micrograms/kg): about 39%
arithmetic mean percentage inhibition of LPS-induced pulmonary neutrophilia ([1]; about 300 micrograms/kg): about 55%
percentage inhibition (arithmetic mean) of LPS-induced nasal neutrophilia ([2]; about 1 micrograms/kg): essentially no inhibition
percentage inhibition (arithmetic mean) of LPS-induced nasal neutrophilia ([2]; about 3 micrograms/kg): small and non-statistically-significant inhibition
percentage inhibition (arithmetic mean) of LPS-induced nasal neutrophilia ([2]; about 10 micrograms/kg): about 62%
percentage inhibition (arithmetic mean) of LPS-induced nasal neutrophilia ([2]; about 100 micrograms/kg): about 79%

Nc1nc2c([nH]1)c(=O)n(CC1CC1)c(=O)n2CC1CC1 [cipamfylline]
effectiveness in the treatment of atopic dermatitis patients ([3]; 0.15% cream versus vehicle and hydrocortisone 17-butyrate (0.1%) cream): significantly more effective than vehicle, but significantly less effective than hydrocortisone 17-butyrate (0.1%) cream

CCc1nc2c(cnn2CC)c(NC2CCOCC2)c1CNC(=O)c1ccc(NC(=O)CCCCCCCN(C)CCO)cc1 [N-{[1,6-diethyl-4-(tetrahydro-2H-pyran-4-ylamino)-1H-pyrazolo[3,4-b]pyridin-5-yl]methyl}-4-({8-[(2-hydroxyethyl)(methyl)amino]octanoyl}amino)benzamide]
duration of action ([1]; after i.t. administration to the rat as a dry powder): 4 h
duration of action ([1]; after i.t. administration to the rat as an aqueous solution): ≥ 2 h

COc1ccc(C2CNC(=O)NC2)cc1O[C@H]1C[C@@H]2CC[C@H]1C2 [CP80,633]
inflammatory parameters in atopic dermatitis patients ([3]; 0.5% ointment, twice daily topical application): reductions of inflammatory parameters

COc1ccc([C@]2(C#N)CC[C@@H](C(=O)O)CC2)cc1OC1CCCC1 [cilomilast]
forced expiratory volume in 1s (FEV1) in COPD patients ([4]; 15 mg orally twice daily): appears to improve forced expiratory volume in 1s (FEV1)
antiinflammatory effects in COPD patients ([4]; human, in vivo): appears to have anti-inflammatory effects; also recorded: appears to have antiinflammatory effects

O=C(Nc1c(Cl)cncc1Cl)c1ccc(OC(F)F)c(OCC2CC2)c1 [roflumilast]
rhinal airflow during the treatment period (compared to placebo) [5]: effective in improving rhinal airflow
FEV1 in COPD patients ([4]; human, in vivo): appears to show small improvements in FEV1

CCc1nc2c(cnn2CC)c(NC2CCOCC2)c1CNC(=O)c1ccc(NC(=O)CCCCCCCN(C)CCO)cc1 [Example 1B, N-{[1,6-diethyl-4-(tetrahydro-2H-pyran-4-ylamino)-1H-pyrazolo[3,4-b]pyridin-5-yl]methyl}-4-({8-[(2-hydroxyethyl)(methyl)amino]octanoyl}amino)benzamide]
percentage mean inhibition of LPS-induced pulmonary neutrophilia ([1]; about 10 micrograms/kg): about 29%
percentage mean inhibition of LPS-induced pulmonary neutrophilia ([1]; about 30 micrograms/kg): about 75%
percentage mean inhibition of LPS-induced pulmonary neutrophilia ([1]; about 100 micrograms/kg): about 59%

Source: patent publication US8003663B2, “Pyrazolo[3,4-b]pyridine compounds, and their use as PDE4 inhibitors” (Glaxo Group Limited, priority 2006, dated 2011)
